“And” between values parts separate entries of the source, which are not always exact repeats. Equal entries are not always repeated.
Assays:
SCD1 [1] = biological target: SCD1 (Rattus norvegicus (Rat), UniProt P07308); experiment: SCD1 enzymatic assay in rat liver microsomes (RLM); type: biochemical; conditions: rat liver microsomes; for inhibition at 1 µM / % Inh.@ 1 μM: 1 μM test compound; for inhibition at 1 µM: read-out: % Inh.@ 1 μM
Procedure: Step 1: Preparation of Rat Liver Microsome (RLM):
Sprague Dawley rats from Charles River (200-225 g) underwent 2-cycle of fast-re-feeding (24-hour fast followed by 24-hour feeding with fat-free high carbohydrate diet, Reseach Diet, D00042802). The livers were removed and homogenized 1:4 (w/v) with pre-chilled, homogenizing buffer (10 mM Tris-HCl, 0.25 M sucrose, 1 mM EDTA, pH 7.4, supplemented with protease inhibitor cocktail). The homogenate was spun at 12,000×g for 15 min at 4° C. The supernatant was then re-centrifuged at 100,000×g for 60 min at 4° C. The pellet was re-suspended in 2 ml pre-chilled […] potassium phosphate buffer, pH 7.2, 10 mM EDTA at a concentration of 20 mg/ml. The resulting rat liver microsome (RLM) preparation was stored at −80° C.
Step 2: SCD1 Enzymatic Assay in RLM:
The SCD1 enzymatic assay was done in a volume of 50 μL using 10 μg of RLM (prepared as described above) in a 96-well polypropylene plate (enzyme reaction buffer contains 0.1 M K-Phosphate Buffer, 10 mM ATP, 6 mM MgCl2. 1 mM CoA, 1 mM β-NADH, 1.6 mM L-glutathione, 20 μM Stearoyl-CoA). Stearoyl-[9,10-^3H]-CoA (ARC-0390, 1 mCi/mL, 60 Ci/mmol,) was added at a final concentration of 2 μCi/mL. Test compound was then added to the reaction mixture at the selected concentration. After incubation at room temperature for 2 hours, 5 μL 1 N HCl was added to stop the reaction, followed by addition of 25 μL of 10% charcoal. The reaction mixture was then transferred to 96-well Multiscreen plate (Millipore, Cat#MSFCN6B50). […] The measured cpm values were fitted with Sigmoidal dose-response curve fit with Graphpad Prism.

SCD1 [2] = biological target: SCD1 (Homo sapiens (Human), UniProt O00767); experiment: SCD1 13C-palmitic acid assay in A431 cells; type: cell-based; conditions: read-out: A431 cells 13C-PA IC50
Procedure: Human epithelial carcinoma A431 cells were seeded at 100,000 cells/well in complete growth medium (DMEM, Cellgro#10-013-CM, 4.5 g/L glucose, 10% FBS) in the presence of 0.05 mg/mL human insulin (Hannas Pharmaceutical Supply Co Inc, Humanlin 100 U/ml, 4 mg/ml) in 96-well tissue culture plate. 24 hr later, the cells were washed extensively with Assay Buffer (DMEM, Cellgro#10-013-CM, 4.5 g/L glucose, supplemented with 0.05 mg/mL Human Insulin and 0.1% Fatty Acid Free BSA). […] The cells were then returned to the tissue culture incubator (37° C. and 5% CO2) for 4 hrs. At the end of incubation, the cells were washed three times with 200 μL/well Hanks buffer (HBSS) and then stored at −20° C. until extraction.
For fatty acid extraction, after thawing out the plates, 40 μL of 1N KOH (containing 5 μM of internal standard 7,7,8,8-D4 palmitate) was added to each well and cell plates were incubated at 37° C. for 30 minutes. […] Acetonitrile (100 μL) was then added to extract fatty acids, followed by centrifugation at 3000 rpm for 10 minutes. 75 μL of extract was then transferred to a new glass vial in a 96-well cluster plate. 5 μL was injected for LC/MS analysis for detection of ^13C-palmitic acid and ^13C-palmitoleic acid. Formation of product ^13C-palmitoleic acid was determined as an index of SCD1 activity.
LC/MS analysis was performed as following. An Agilent 1100 Liquid Chromatographic System (Palo Alto, Calif.) consisting of a binary pump, a degasser and an autosampler was used. Separation of free fatty acids was performed on a Zorbax SB-C8 column (2.1×50 mm, particle size=3.5 μm). An isocratic elution was carried out with 10 mM triethylamine acetate in water: acetonitrile (3:7) at a flow rate of 0.3 mL/min. The column temperature was set at 30° C. and the sample injection volume was 5 μL. The LC run cycle was 4 min. A Micromass triple-quadrupole Quattro Micro mass […] (Waters, Beverly, Mass.) was interfaced with the LC system through a Z-spray electrospray ion source and was operated in the negative ion mode. Nitrogen was used as nebulizing gas, desolvation gas and cone curtain gas and argon was chosen as collision gas. The triple quadrupole MS source parameters were set as follows: capillary voltage, 3200V; cone voltage, 25V; exctractor 2V; source temperature, 120° C.; desolvation temperature, 300° C.; cone gas flow, 50 L/h; and desolvation gas flow, 700 L/h. […] MassLynx software version 4.0 was used for system control and data processing. The signal of U-^13C-palmitoleic acid was normalized to an internal standard.

SCD1 (Homo sapiens (Human), UniProt O00767), sequence (O00767 whole entry): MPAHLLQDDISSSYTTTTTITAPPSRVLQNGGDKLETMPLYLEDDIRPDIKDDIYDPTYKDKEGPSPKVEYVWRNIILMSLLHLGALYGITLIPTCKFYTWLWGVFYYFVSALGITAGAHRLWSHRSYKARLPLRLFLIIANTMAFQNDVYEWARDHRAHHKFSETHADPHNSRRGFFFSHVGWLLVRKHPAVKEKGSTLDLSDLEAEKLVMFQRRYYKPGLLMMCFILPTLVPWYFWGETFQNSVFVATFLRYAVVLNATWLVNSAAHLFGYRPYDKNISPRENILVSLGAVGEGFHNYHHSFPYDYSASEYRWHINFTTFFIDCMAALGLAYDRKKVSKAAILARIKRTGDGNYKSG
SCD1 (Rattus norvegicus (Rat), UniProt P07308), sequence (P07308 whole entry): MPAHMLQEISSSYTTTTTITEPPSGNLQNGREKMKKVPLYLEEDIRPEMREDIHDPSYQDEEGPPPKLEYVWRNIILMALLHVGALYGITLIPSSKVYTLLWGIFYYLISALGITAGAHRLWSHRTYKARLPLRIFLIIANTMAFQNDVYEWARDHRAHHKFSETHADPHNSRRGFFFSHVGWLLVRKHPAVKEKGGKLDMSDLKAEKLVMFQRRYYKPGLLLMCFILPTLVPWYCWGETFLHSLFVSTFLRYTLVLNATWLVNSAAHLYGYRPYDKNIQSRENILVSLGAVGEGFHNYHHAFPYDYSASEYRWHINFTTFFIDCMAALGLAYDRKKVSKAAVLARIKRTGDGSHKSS

inhibition at 1 µM (SCD1 [1]) | IC50 (SCD1 [1]) | IC50 (SCD1 [2]) | % Inh.@ 1 μM (SCD1 [1]) | SMILES
85% | 165 nM | 99 nM | – | Cn1cc(-c2ccc(N3CCC(N4CCc5cc(F)ccc54)CC3)nn2)cn1 [Compound #46, 5-fluoro-1-(1-(6-(1-methyl-1H-pyrazol-4-yl)pyridazin-3-yl)piperidin-4-yl)indoline]
96% | 22 nM | 8 nM | – | OCc1ccc(-c2ccc(N3CCC(N4CCc5ccc(F)cc54)CC3)nn2)cc1 [Compound #51]
92% | 121 nM | 6 nM | – | Cc1ccc(-c2ccc(N3CCC(N4CCc5ccc(F)cc54)CC3)nn2)s1 [Compound #52, 6-fluoro-1-(1-(6-(5-methylthiophen-2-yl)pyridazin-3-yl)piperidin-4-yl)indoline]
85% | 90 nM | 54 nM | – | Fc1ccc2c(c1)N(C1CCN(c3ccc(-c4ccc(C(F)(F)F)cc4)nn3)CC1)CC2 [Compound #54, 6-fluoro-1-(1-(6-(4-(trifluoromethyl)phenyl)pyridazin-3-yl)piperidin-4-yl)indoline]
72% | 286 nM | 241 nM | – | Cc1ccc2c(c1)N(C1CCN(c3ccc(-c4cnn(C)c4)nn3)CC1)CC2 [Compound #57, 6-methyl-1-(1-(6-(1-methyl-1H-pyrazol-4-yl)pyridazin-3-yl)piperidin-4-yl)indoline]
78% | 349 nM | 390 nM | – | O=C(O)c1ccc(-c2ccc(N3CCC(N4CCc5ccc(F)cc54)CC3)nn2)cc1 [Compound #58, 4-(6-(4-(6-fluoroindolin-1-yl)piperidin-1-yl)pyridazin-3-yl)benzoic acid]
99% | 35 nM | 28 nM | – | Cn1cc(-c2ccc(N3CCC(N4CCc5ccc(Cl)cc54)CC3)nn2)cn1 [Compound #59, 6-chloro-1-(1-(6-(1-methyl-1H-pyrazol-4-yl)pyridazin-3-yl)piperidin-4-yl)indoline]
79% | 317 nM | 407 nM | – | COc1ccc2c(c1)N(C1CCN(c3ccc(-c4cnn(C)c4)nn3)CC1)CC2 [Compound #62, 6-methoxy-1-(1-(6-(1-methyl-1H-pyrazol-4-yl)pyridazin-3-yl)piperidin-4-yl)indoline]
102% | 15 nM | 12 nM | – | CNC(=O)Cn1cc(-c2ccc(N3CCC(N4CCc5ccc(F)cc54)CC3)nn2)cn1 [Compound #64, 2-(4-(6-(4-(6-fluoroindolin-1-yl)piperidin-1-yl)pyridazin-3-yl)-1H-pyrazol-1-yl)-N-methylacetamide]
83% | 181 nM | 218 nM | – | Cn1cc(-c2ccc(N3CCC(N4CCc5cc(Cl)ccc54)CC3)nn2)cn1 [Compound #65, 5-chloro-1-(1-(6-(1-methyl-1H-pyrazol-4-yl)pyridazin-3-yl)piperidin-4-yl)indoline]
99% | 8 nM | 9 nM | – | CCOCc1cnn(-c2ccc(N3CCC(N4CCc5ccc(F)cc54)CC3)nn2)c1 [Compound #72, 1-(1-(6-(4-(ethoxymethyl)-1H-pyrazol-1-yl)pyridazin-3-yl)piperidin-4-yl)-6-fluoroindoline]
97% | 16 nM | 14 nM | – | Fc1ccc2c(c1)N(C1CCN(c3ccc(-c4ccc(C(F)(F)F)nc4)nn3)CC1)CC2 [Compound #76, 6-fluoro-1-(1-(6-(6-(trifluoromethyl)pyridin-3-yl)pyridazin-3-yl)piperidin-4-yl)indoline]
99% | 12 nM | 41 nM | – | CCOCCn1cc(-c2ccc(N3CCC(N4CCc5ccc(F)cc54)CC3)nn2)cn1 [Compound #78, 1-(1-(6-(1-(2-ethoxyethyl)-1H-pyrazol-4-yl)pyridazin-3-yl)piperidin-4-yl)-6-fluoroindoline]
97% | 22 nM | 72 nM | – | CCCn1cc(-c2ccc(N3CCC(N4CCc5ccc(F)cc54)CC3)nn2)cn1 [Compound #79, 6-fluoro-1-(1-(6-(1-propyl-1H-pyrazol-4-yl)pyridazin-3-yl)piperidin-4-yl)indoline]
98% | 70 nM | 985 nM | – | CCn1cc(-c2ccc(N3CCC(c4noc5ccc(F)cc45)CC3)nn2)cn1 [compound 13, 3-(1-(6-(1-ethyl-1H-pyrazol-4-yl)pyridazin-3-yl)piperidin-4-yl)-5-fiuorobenzo[d]isoxazole]
– | 315 nM | 248 nM | – | Cc1nnc(-c2ccc(N3CCC(c4noc5ccc(F)cc45)CC3)nn2)o1 [compound 18, 5-fluoro-3-(1-(6-(5-methyl-1,3,4-oxadiazol-2-yl)pyridazin-3-yl)piperidin-4-yl)benzo[d]isoxazole]
96% | 16 nM and 14 nM | 11 nM | 96, 96% | OCc1nnc(-c2ccc(N3CCC(c4noc5ccc(F)cc45)CC3)nn2)o1 [compound 20, (5-(6-(4-(5-fluorobenzo[d]isoxazol-3-yl)piperidin-1-yl)pyridazin-3-yl)-1,3,4-oxadiazol-2-yl)methanol]
100% | 21 nM | 3 nM | – | Cc1csc(-c2ccc(N3CCC(c4noc5ccc(F)cc45)CC3)nn2)n1 [compound 23, 5-fluoro-3-(1-(6-(4-methylthiazol-2-yl)pyridazin-3-yl)piperidin-4-yl)benzo[d]isoxazoie]
98% | 11 nM and 4 nM | 9 nM and 6 nM | 94% | Cc1ccc(-c2ccc(N3CCC(c4noc5ccc(F)cc45)CC3)nn2)cn1 [compound 24, 5-fluoro-3-(1-(6-(6-methylpyridin-3-yl)pyridazin-3-yl)piperidin-4-yl)benzo[d]isoxazote]
62% | 171 nM | 17 nM | – | Cc1cc(-c2ccc(N3CCC(c4noc5ccc(F)cc45)CC3)nn2)ccn1 [compound 25, 5-fluoro-3-(1-(6-(2-methylpyridin-4-yl)pyridazin-3-yl)piperidin-4-yl)benzo[d]isoxazole]
86% | 111 nM | 112 nM | – | Fc1ccc2onc(C3CCN(c4ccc(-c5cn[nH]c5)nn4)CC3)c2c1 [compound 26, 3-(1-(6-(1H-pyrazol-4-yl)pyridazin-3-yl)piperidin-4-yl)-5-fluorobenzo[d]isoxazole]
75% | 114 nM and 122 nM | 4 nM and 3 nM | 55% | Cc1csc(-c2ccc(N3CCC(c4noc5ccc(F)cc45)CC3)nn2)c1 [compound 27, 5-fluoro-3-(1-(6-(4-methylthiophen-2-yl)pyridazin-3-yl)piperidin-4-yl)benzo[d]isoxazole]
94% | 9 nM | 9 nM and 16 nM | – | Cc1cnc(-c2ccc(N3CCC(c4noc5ccc(F)cc45)CC3)nn2)s1 [compound 28, 5-fluoro-3-(1-(6-(5-methylthiazol-2-yl)pyridazin-3-yl)piperidin-4-yl)benzo[d]isoxazole]

Source: patent publication US9102669B2, “Substituted piperidinyl-pyridazinyl derivatives useful as SCD 1 inhibitors” (Janssen Pharmaceutica NV, priority 2011, dated 2015)
